Measurements from US11395833B2, “Process for the preparation and purification of the sodium salt of hyaluronic acid” (priority 2016, dated 2022).

Assay: LAL test for bacterial endotoxins (Ph. Eur. 5.0, 2.6.14)
Settings: analysis of the product according to Ph. Eur. 5.0
Description: LAL Test: the basis of the LAL test is the capacity of the amebocytes extracted from blood of Limulus polyphemus to gel in the presence of bacterial endotoxins from Gram-negatives, primarily responsible for the pyrogen effect. This test is carried out according to Ph. Eur. 5.0, 2.6.14.

Substance | Bacterial endotoxins (LAL test)
sodium salt of HA [Example 3] | 0.0075 EU/mg
sodium salt of HA [Example 2] | 0.012 EU/mg
sodium salt of HA [Example 1] | 0.012 EU/mg
